This is an account of results in patent US20130252950A1, “TARGETING MTOR SUBSTRATES IN TREATING PROLIFERATIVE DISEASES” (President and Fellows of Harvard College, priority 2010, published 2013).

Molecules are shown by their SMILES.

This assay relates to Grb10 protein in TSC2−/− cells. Kind of assay: Immunoblot of Grb10 protein level after long-term treatment. In kind it is cell-based, mouse. To be noted: TSC2−/− MEFs stably expressing HA-tagged Grb10-DD, long-term 20 nM rapamycin. The source says:
FIG. 3. mTOR-mediated Grb10 phosphorylation is important for Grb10 stability. (A) Grb10 interacts with raptor, but not rictor. HA-tagged Grb10 was co-transfected with Myc-raptor or Myc-rictor in HEK293T cells. Cells were lysed in lysis buffer A, and the lysates were subjected to immunoprecipitation using anti-HA antibody conjugated beads. Raptor and rictor were probed with an antibody against the Myc-tag. (B) Grb10 is phosphorylated by mTOR in vitro. […] Phosphorylation of Grb10 at S501/S503 was detected by using the phospho-specific antibody against these two sites. (C) Long-term rapamycin treatment leads to Grb10 degradation in TSC2−/− cells. Note that Grb10 protein expression levels inversely correlated with Akt activity. Grb10 is highly overexpressed in TSC2−/− cells. mRNA level was determined using quantitative RT-PCR based on three biological replicate experiments. (D) Knockdown of raptor in TSC2−/− cells decreased Grb10 protein level. Cells were starved overnight and the lysates were probed with the antibodies indicated. (E) Grb10 is highly overexpressed in TSC2−/− cells. (F) S501A/S503A mutant is unstable compared with the wild-type or the S501D/S503D mutant. The same amount of DNA was transfected into HEK293T cells. […] Endogenous Grb10 was detected using an antibody that preferentially recognizes mouse Grb10 whereas the Grb10 DD mutant (of human origin) was detected using an anti-HA antibody.
FIG. 9. Phosphorylation of Grb10 at S501/S503 regulates its stability. […] Preincubation of the antibody with the […] completely eliminated the immunoreactivity. (B) Further validation of the phospho-specific antibody raised against the Grb10 S501/S503 sites. Grb10 WT, S501A/S503A (AA) and S501D/S503D (DD) were transfected into HEK239T cells and were probed with the antibody. Note that this antibody detected wild type (WT) Grb10, but neither of the mutant proteins. (C) Treatment of TSC2−/− cells with various mTOR kinase inhibitors led to Grb10 degradation. […] (E) Grb10 is highly overexpressed in TSC1−/− cells compared with their wild-type counterparts. (F) rapamycin treatment of TSC2−/− cells stably expressing wild type (WT) Grb10 led to lower levels of both endogenous and exogenous Grb10.
In addition, long-term treatment with mTOR kinase inhibitors, including LY-294002, NVP-BEZ235, torin and pp 242 all led to reduced Grb10 protein expression (FIG. 9C). Similar results were obtained in TSC1−/− MEFs (FIG. 9D). In contrast, we found Grb10 was highly overexpressed in TSC2−/− and TSC1−/− MEFs compared with their wild-type counterparts (FIGS. 3E and 9E), correlating with elevated mTORC1 activity in these cells. […]
Background: A western blot detects proteins with antibodies after separation by electrophoresis.

As to `CO[C@H]1C[C@@H]2CC[C@@H](C)[C@@](O)(O2)C(=O)C(=O)N2CCCC[C@H]2C(=O)O[C@H]([C@H](C)C[C@@H]2CC[C@@H](O)[C@H](OC)C2)CC(=O)[C@H](C)/C=C(\C)[C@@H](O)[C@@H](OC)C(=O)[C@H](C)C[C@H](C)/C=C/C=C/C=C/1C` [rapamycin], the “Grb10 S501D/S503D (DD) mutant protein levels” value is reported as “no effect”.
